From US20250059174A1, “Pharmaceutical Compounds and Compositions as C-Kit Kinase Inhibitors” (Enanta Pharmaceuticals, Inc., priority 2023, published 2025)

Molecular target: Recombinant human c-KIT kinase (Homo sapiens (Human), UniProt P10721)
Experiment: c-KIT kinase chemiluminescence assay (ADP-Glo)
Type: biochemical
Conditions: ATP 50 μM
In short: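 Recombinant human c-KIT preincubated 30 min at RT in 40 mM Tris pH 7.5, 20 mM MgCl2, 0.1 mg/mL BSA, 50 μM DTT, then reacted 2 h at RT with ATP and polyEY substrate. ADP-Glo luminescence readout; activity normalized to high/low controls, IC50 and Hill coefficient from inhibitor-versus-normalized-response fit.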

Chain of Recombinant human c-KIT kinase (P10721 26-976): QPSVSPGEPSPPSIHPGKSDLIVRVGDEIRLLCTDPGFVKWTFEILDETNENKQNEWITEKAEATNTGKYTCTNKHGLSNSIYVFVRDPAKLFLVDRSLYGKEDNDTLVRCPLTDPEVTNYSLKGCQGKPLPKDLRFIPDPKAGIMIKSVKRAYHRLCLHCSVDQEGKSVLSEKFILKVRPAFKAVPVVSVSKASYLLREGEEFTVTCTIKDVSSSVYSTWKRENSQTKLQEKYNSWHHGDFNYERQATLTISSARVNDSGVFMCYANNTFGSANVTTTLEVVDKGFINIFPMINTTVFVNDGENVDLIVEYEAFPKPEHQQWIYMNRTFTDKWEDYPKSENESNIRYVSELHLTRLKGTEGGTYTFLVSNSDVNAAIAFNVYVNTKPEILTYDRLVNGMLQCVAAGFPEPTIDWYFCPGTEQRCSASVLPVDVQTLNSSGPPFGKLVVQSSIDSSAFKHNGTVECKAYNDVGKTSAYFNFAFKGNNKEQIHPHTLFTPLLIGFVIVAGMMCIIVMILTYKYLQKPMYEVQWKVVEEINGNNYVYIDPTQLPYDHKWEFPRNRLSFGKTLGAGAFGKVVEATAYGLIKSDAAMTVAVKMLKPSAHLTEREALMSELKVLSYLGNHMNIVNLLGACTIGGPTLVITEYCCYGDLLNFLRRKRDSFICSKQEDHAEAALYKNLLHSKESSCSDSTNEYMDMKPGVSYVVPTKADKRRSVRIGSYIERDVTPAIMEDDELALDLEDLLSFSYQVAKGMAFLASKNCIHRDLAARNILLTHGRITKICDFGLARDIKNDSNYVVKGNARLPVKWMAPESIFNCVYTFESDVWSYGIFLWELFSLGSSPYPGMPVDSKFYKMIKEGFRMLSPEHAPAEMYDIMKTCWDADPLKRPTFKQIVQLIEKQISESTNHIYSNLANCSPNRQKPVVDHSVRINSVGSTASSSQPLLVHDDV

Row | SMILES | IC50
1 | Cc1ccc(-c2noc([C@H]3C[C@@H]3F)n2)cc1NC(=O)c1cnn2ccc(N3CC(C(=O)N4CC(F)(F)C4)C3)cc12 [Example 241-11] | < 0.1 µM
2 | Cc1ccc(-c2noc([C@H]3C[C@@H]3F)n2)cc1NC(=O)c1cnc(-c2ccc(N)nc2)o1 [Example 287] | 0.1 to 1 µM
3 | Cc1ccc(-c2noc([C@H]3C[C@@H]3F)n2)cc1NC(=O)c1cnc(-c2ccccc2)n1C [Example 14] | 0.1 to 1 µM
4 | Cc1ccc(-c2noc([C@H]3C[C@@H]3F)n2)cc1NC(=O)c1cnn2ccc(N3CC[C@@H](NC(=O)OC(C)(C)C)C3)cc12 [Example 192] | 0.1 to 1 µM
5 | Cc1ccc(-c2noc([C@H]3C[C@@H](OC(F)(F)F)C3)n2)cc1NC(=O)c1cnn2ccc(N3CC4(CN(CC(F)(F)F)C4)C3)cc12 [Example 244] | < 0.1 µM
6 | Cc1ncc(-c2noc([C@H]3C[C@@H](C(F)(F)F)C3)n2)cc1NC(=O)c1cnn2cc(-c3cn(C(F)F)nn3)ccc12 [Example 132-8] | < 0.1 µM
7 | Cc1ccc(-c2noc([C@H]3C[C@@H]3F)n2)cc1NC(=O)c1cnn2ccc(N3CCS(=O)(=O)CC3)cc12 [Example 44] | < 0.1 µM
8 | Cc1ccc(-c2noc([C@H]3C[C@@H]3F)n2)cc1NC(=O)c1cnn2ccc(N3CC[C@H](N(C)C(=O)OC(C)(C)C)C3)cc12 [Example 203] | < 0.1 µM
9 | Cc1ccc(-c2noc([C@H]3C[C@@H]3F)n2)cc1NC(=O)c1cnn2ccc(NC(=O)OC(C)(C)C)cc12 [Example 90] | 0.1 to 1 µM
10 | Cc1nc(C)c(-c2ccn3ncc(C(=O)Nc4cc(-c5noc([C@H]6C[C@@H]6F)n5)ccc4C)c3c2)s1 [Example 170] | < 0.1 µM
11 | Cc1ccc(-c2noc([C@H]3C[C@@H]3F)n2)cc1NC(=O)c1cnn2ccc(-c3nnn(C)n3)cc12 [Example 131] | 0.1 to 1 µM
12 | Cc1ccc(-c2noc([C@H]3C[C@@H]3F)n2)cc1NC(=O)c1cnn2ccc(N3CC[C@H]3C(=O)OC(C)(C)C)cc12 [Example 209] | 0.1 to 1 µM
13 | Cc1ccc(-c2noc([C@H]3C[C@@H]3F)n2)cc1NC(=O)c1cnc(-c2ccc3c(c2)CC(=O)N3)o1 [Example 299] | < 0.1 µM
14 | Cc1ccc(-c2noc([C@H]3C[C@@H]3F)n2)cc1NC(=O)c1cnn2ccc(N3CC(CO)(C(=O)O)C3)cc12 [Example 241-16] | 0.1 to 1 µM

Now from value to molecule:

Row | IC50 | SMILES
15 | < 0.1 µM | Cc1ncc(-c2noc([C@H]3C[C@@H]3C(F)F)n2)cc1NC(=O)c1cnn2ccc(N3CC4(C3)CC(O)(C(F)F)C4)cc12 [Example 281-64]
16 | 0.1 to 1 µM | O=C(Nc1cc(-c2noc([C@H]3C[C@@H]3F)n2)ccc1Cl)c1cnn2ccc(N3CC4(C3)CC(O)(C(F)F)C4)cc12 [Example 281-26]
17 | 0.1 to 1 µM | Cc1ccc(-c2noc([C@H]3C[C@@H]3F)n2)cc1NC(=O)c1cnc(-c2cccc(NS(C)(=O)=O)c2)o1 [Example 308-28]
18 | < 0.1 µM | Cc1cc(F)c(-c2noc([C@H]3C[C@@H](OC(F)(F)F)C3)n2)cc1NC(=O)c1cnn2ccc(N3CC4(COC4)C3)cc12 [Example 281-57]
19 | < 0.1 µM | COC(=O)N1CCC(c2nc(-c3ccc(C)c(NC(=O)c4cnn5ccc(N6CC7(C6)CC(O)(C(F)F)C7)cc45)c3)no2)C1 (centres unmarked) [Example 281-108]

Test system: M-07e cells
Experiment: M-07e cellular assay (SCF-mediated cell proliferation)
Type: cell-based
Conditions: Homo sapiens, 72 hours, CellTiter Glo
In short: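 EC50 values reflect inhibition of SCF-driven proliferation, with SCF at EC90 and a 72 h compound exposure, measured as CellTiter Glo luminescence. Growth is scaled between no-SCF (0%) and untreated (100%) wells.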

Row | SMILES | EC50
20 | Cc1ccc(-c2noc([C@H]3C[C@@H]3F)n2)cc1NC(=O)c1cnn2ccc(N3CC(C(=O)N4CC(F)(F)C4)C3)cc12 [Example 241-11] | < 0.1 µM
21 | Cc1ncc(-c2noc([C@H]3C[C@@H]3C(F)F)n2)cc1NC(=O)c1cnn2ccc(N3CC4(C3)CC(O)(C(F)F)C4)cc12 [Example 281-64] | < 0.1 µM
22 | Cc1ccc(-c2noc([C@H]3C[C@@H]3F)n2)cc1NC(=O)c1cnc(-c2ccc(N)nc2)o1 [Example 287] | 0.1 to 1 µM
23 | O=C(Nc1cc(-c2noc([C@H]3C[C@@H]3F)n2)ccc1Cl)c1cnn2ccc(N3CC4(C3)CC(O)(C(F)F)C4)cc12 [Example 281-26] | < 0.1 µM
24 | Cc1ccc(-c2noc([C@H]3C[C@@H]3F)n2)cc1NC(=O)c1cnc(-c2ccccc2)n1C [Example 14] | > 1 µM
25 | Cc1ccc(-c2noc([C@H]3C[C@@H]3F)n2)cc1NC(=O)c1cnn2ccc(N3CC[C@@H](NC(=O)OC(C)(C)C)C3)cc12 [Example 192] | 0.1 to 1 µM
26 | Cc1ccc(-c2noc([C@H]3C[C@@H](OC(F)(F)F)C3)n2)cc1NC(=O)c1cnn2ccc(N3CC4(CN(CC(F)(F)F)C4)C3)cc12 [Example 244] | < 0.1 µM
27 | Cc1ncc(-c2noc([C@H]3C[C@@H](C(F)(F)F)C3)n2)cc1NC(=O)c1cnn2cc(-c3cn(C(F)F)nn3)ccc12 [Example 132-8] | < 0.1 µM
28 | Cc1ccc(-c2noc([C@H]3C[C@@H]3F)n2)cc1NC(=O)c1cnn2ccc(N3CCS(=O)(=O)CC3)cc12 [Example 44] | < 0.1 µM
29 | Cc1ccc(-c2noc([C@H]3C[C@@H]3F)n2)cc1NC(=O)c1cnn2ccc(N3CC[C@H](N(C)C(=O)OC(C)(C)C)C3)cc12 [Example 203] | 0.1 to 1 µM
30 | Cc1ccc(-c2noc([C@H]3C[C@@H]3F)n2)cc1NC(=O)c1cnn2ccc(NC(=O)OC(C)(C)C)cc12 [Example 90] | 0.1 to 1 µM
31 | Cc1ccc(-c2noc([C@H]3C[C@@H]3F)n2)cc1NC(=O)c1cnc(-c2cccc(NS(C)(=O)=O)c2)o1 [Example 308-28] | 0.1 to 1 µM
32 | Cc1nc(C)c(-c2ccn3ncc(C(=O)Nc4cc(-c5noc([C@H]6C[C@@H]6F)n5)ccc4C)c3c2)s1 [Example 170] | < 0.1 µM
33 | Cc1cc(F)c(-c2noc([C@H]3C[C@@H](OC(F)(F)F)C3)n2)cc1NC(=O)c1cnn2ccc(N3CC4(COC4)C3)cc12 [Example 281-57] | 0.1 to 1 µM
34 | COC(=O)N1CCC(c2nc(-c3ccc(C)c(NC(=O)c4cnn5ccc(N6CC7(C6)CC(O)(C(F)F)C7)cc45)c3)no2)C1 (centres unmarked) [Example 281-108] | < 0.1 µM
35 | Cc1ccc(-c2noc([C@H]3C[C@@H]3F)n2)cc1NC(=O)c1cnn2ccc(-c3nnn(C)n3)cc12 [Example 131] | < 0.1 µM
36 | Cc1ccc(-c2noc([C@H]3C[C@@H]3F)n2)cc1NC(=O)c1cnn2ccc(N3CC[C@H]3C(=O)OC(C)(C)C)cc12 [Example 209] | 0.1 to 1 µM
37 | Cc1ccc(-c2noc([C@H]3C[C@@H]3F)n2)cc1NC(=O)c1cnc(-c2ccc3c(c2)CC(=O)N3)o1 [Example 299] | < 0.1 µM
38 | Cc1ccc(-c2noc([C@H]3C[C@@H]3F)n2)cc1NC(=O)c1cnn2ccc(N3CC(CO)(C(=O)O)C3)cc12 [Example 241-16] | > 1 µM
